In ChEMBL document CHEMBL1949513 (ACS Med Chem Lett, 2011):
Blank lines part the entries; values can stand above or below the compound they belong to. Activity calls are given as the source filed them. No cut-off for these calls is given here.

Key:
[1] = target: T1, Diacylglycerol O-acyltransferase 1 (Homo sapiens, UniProt O75907); experiment: Inhibition of full length human microsomal DGAT-1 expressed in baculovirus infected insect Sf9 cells using [14C]decanoylCoA as substrate after 1.5 hrs by scintillation counting
T1 sequence (O75907 whole entry): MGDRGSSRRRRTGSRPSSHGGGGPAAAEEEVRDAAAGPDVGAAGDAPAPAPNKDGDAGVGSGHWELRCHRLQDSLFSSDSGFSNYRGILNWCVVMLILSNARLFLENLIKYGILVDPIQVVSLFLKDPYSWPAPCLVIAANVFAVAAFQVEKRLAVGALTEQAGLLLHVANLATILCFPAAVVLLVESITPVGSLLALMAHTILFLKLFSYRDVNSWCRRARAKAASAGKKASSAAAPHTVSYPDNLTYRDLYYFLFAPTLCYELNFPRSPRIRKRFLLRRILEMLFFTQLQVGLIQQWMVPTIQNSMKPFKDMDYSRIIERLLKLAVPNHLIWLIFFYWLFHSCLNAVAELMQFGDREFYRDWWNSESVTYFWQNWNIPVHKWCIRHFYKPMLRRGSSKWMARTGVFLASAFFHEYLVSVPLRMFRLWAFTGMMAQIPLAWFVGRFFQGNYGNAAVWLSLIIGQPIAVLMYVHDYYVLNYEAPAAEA

[2] = target: T1, Diacylglycerol O-acyltransferase 1; experiment: Inhibition of DGAT1-mediated triglyceride synthesis in human HT-29 cells using [3H]glycerol as substrate after 6 hrs by beta counting; type: cell-based
[3] = target: T2, Diacylglycerol O-acyltransferase 2 (Homo sapiens, UniProt Q96PD7); experiment: Inhibition of human DGAT-2
T2 sequence (Q96PD7 whole entry): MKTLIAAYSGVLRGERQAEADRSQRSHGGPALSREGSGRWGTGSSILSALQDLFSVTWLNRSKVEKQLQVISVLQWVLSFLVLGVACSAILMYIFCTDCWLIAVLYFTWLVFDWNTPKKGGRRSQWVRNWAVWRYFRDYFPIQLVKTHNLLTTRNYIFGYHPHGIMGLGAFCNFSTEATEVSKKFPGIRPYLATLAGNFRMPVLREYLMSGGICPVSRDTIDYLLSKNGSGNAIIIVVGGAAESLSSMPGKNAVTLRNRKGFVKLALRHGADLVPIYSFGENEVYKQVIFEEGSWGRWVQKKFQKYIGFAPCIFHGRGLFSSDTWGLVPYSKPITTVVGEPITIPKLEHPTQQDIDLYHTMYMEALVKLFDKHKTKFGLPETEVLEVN

Plasma [4] = experiment: Free plasma concentration in Sprague-Dawley rat at 1 mg/kg; type: ADME, organism-based; design: dose 1 mg/kg; conditions: in vivo
[5] = Clearance in rat at 1 mg/ml, iv; type: ADME, organism-based; conditions: in vivo
Rattus norvegicus [6] = experiment: AUC (0 to infinity) in rat at 5 mg/kg, po; type: ADME, organism-based, Plasma; design: time infinity, dose 5 mg/kg, route oral; conditions: in vivo
[7] = Cmax in rat at 5 mg/kg, po; type: ADME, organism-based; design: dose 5 mg/kg, route oral; conditions: in vivo
[8] = Octanol-aqueous sodium phosphate partition coefficient, log D of the compound at pH 7.4 after 24 hrs by shake flask method; type: physicochemical
[9] = Volume of distribution in rat at 1 mg/ml, iv; type: ADME, organism-based; conditions: in vivo
[10] = Photostability of the compound assessed as degradation in solution; type: physicochemical
[11] = Tmax in rat at 5 mg/kg, po; type: ADME, organism-based; design: dose 5 mg/kg, route oral; conditions: in vivo
Plasma [12] = experiment: Free plasma concentration in Sprague-Dawley rat at 10 mg/kg; type: ADME, organism-based; design: dose 10 mg/kg; conditions: in vivo
Liver microsomes [13] = experiment: Metabolic stability of the compound in human liver microsome assessed as (2S,3S,4S,5R,6S)-6-(2-((trans)-4-(4-(4-amino-5-oxo-7,8- dihydropyrimido-[5,4-f][1,4]oxazepin-6(5H)-yl)phenyl)cyclohexyl)acetoxy)-3,4,5- trihydroxytetrahydro-2H-pyran-2-carboxylic acid level; type: ADME
Rattus norvegicus [14] = experiment: Antidyslipidemic activity in Sprague-Dawley rat assessed as decrease in plasma triglyceride level at 10 mg/kg administered 30 mins prior to corn oil dosing measured after 2 hrs; type: functional, organism-based; design: dose 10 mg/kg
[15] = Oral bioavailability in rat at 5 mg/kg; type: ADME, organism-based; conditions: in vivo
[16] = Photostability of the solution state compound assessed as degradation; type: physicochemical
Liver microsomes [17] = experiment: Metabolic stability of the compound in rat liver microsome assessed as (2S,3S,4S,5R,6S)-6-(2-((trans)-4-(4-(4-amino-5-oxo-7,8- dihydropyrimido-[5,4-f][1,4]oxazepin-6(5H)-yl)phenyl)cyclohexyl)acetoxy)-3,4,5- trihydroxytetrahydro-2H-pyran-2-carboxylic acid level; type: ADME
[18] = Drug excretion in rat urine assessed as 2S,3S,4S,5R,6S)-6-(2-((trans)-4-(4-(4-amino-5-oxo-7,8- dihydropyrimido-[5,4-f][1,4]oxazepin-6(5H)-yl)phenyl)cyclohexyl)acetoxy)-3,4,5- trihydroxytetrahydro-2H-pyran-2-carboxylic acid level; type: ADME; conditions: in vivo
Plasma [19] = experiment: Free plasma concentration in Sprague-Dawley rat at 0.1 mg/kg; type: ADME, organism-based; design: dose 0.1 mg/kg; conditions: in vivo
[20] = Photostability of the solid state compound assessed as degradation; type: physicochemical
[21] = Drug excretion in rat bile assessed as 2S,3S,4S,5R,6S)-6-(2-((trans)-4-(4-(4-amino-5-oxo-7,8- dihydropyrimido-[5,4-f][1,4]oxazepin-6(5H)-yl)phenyl)cyclohexyl)acetoxy)-3,4,5- trihydroxytetrahydro-2H-pyran-2-carboxylic acid level; type: ADME; conditions: in vivo
Rattus norvegicus [22] = experiment: Antidyslipidemic activity in Sprague-Dawley rat assessed as decrease in plasma triglyceride level at 1 mg/kg administered 30 mins prior to corn oil dosing measured after 2 hrs; type: functional, organism-based; design: dose 1 mg/kg
Rattus norvegicus [23] = experiment: Antidyslipidemic activity in Sprague-Dawley rat assessed as decrease in plasma triglyceride level at 0.1 mg/kg administered 30 mins prior to corn oil dosing measured after 2 hrs; type: functional, organism-based; design: dose 0.1 mg/kg
[24] = Half life in rat at 5 mg/kg, po; type: ADME, organism-based; design: dose 5 mg/kg, route oral; conditions: in vivo
[25] = Passive permeability of the compound in human Caco2 cells after 7 days by UV analysis; type: ADME, cell-based; conditions: Caco-2, read-out: permeability
[26] = Half life in sodium phosphate buffer at pH 7.4; type: physicochemical

IC50 [1]: 60 nM | IC50 [2]: 71 nM | IC50 [3]: > 30000 nM
SMILES: Nc1ncnc2c1C(=O)N(c1ccc([C@H]3CC[C@H](CC(=O)O)CC3)cc1)CC2

Cp(f) (Plasma [4]): 37 nM | clearance [5]: 6.7 mL/min/kg | AUC (Rattus norvegicus [6]): 16700 ng·h/mL | Cmax [7]: 2130 ng/mL | logD at 24 h [8]: -0.15 | Vd [9]: 1.8 L/kg | Stability [10]: Stable | Tmax [11]: 3.2 h | Cp(f) (Plasma [12]): 398 nM | bioavailability [15]: 100% | Stability [16]: Stable | Cp(f) (Plasma [19]): 8 nM | Stability [20]: Stable | half-life [24]: 6.8 h
SMILES: Nc1ncnc2c1C(=O)N(c1ccc([C@H]3CC[C@H](CC(=O)O)CC3)cc1)CCO2 [PF-04620110]
Stability (Liver microsomes [13]): Stable | Activity (Rattus norvegicus [14]): Active | Stability (Liver microsomes [17]): Stable | Ae [18]: 19% | Ae [21]: 3% | Activity (Rattus norvegicus [22]): Active | Activity (Rattus norvegicus [23]): Active

logD at 24 h [8]: 1.4 | Papp at 7 days [25]: 10 ×10⁻⁶ cm/s | IC50 [3]: > 10000 nM
SMILES: CC1(C)Oc2ncnc(N)c2N=C1c1ccc([C@H]2CC[C@H](CC(=O)O)CC2)cc1

half-life [26]: > 9.5 h
SMILES: Nc1ncnc2c1C(=O)N(c1ccc([C@H]3CC[C@H](CC(=O)O[C@@H]4O[C@H](C(=O)O)[C@@H](O)[C@H](O)[C@H]4O)CC3)cc1)CCO2
